Measurements as given in EP2046786B1, “POLYMORPHIC FORMS OF ZIPRASIDONE SULFATES” (KRKA, priority 2006, dated 2008).
Where a name gives a salt, the structure may show the parent alone.

Key:
[1] = Water sorption analysis (0 % RH to 95 % RH, 25°C); assay type: physicochemical; conditions: for release of crystal water at 0 % RH: nitrogen flow rate 200 ml/min; for RH at which water sorption started: two 11-step circles from 0 % RH to 95 % RH
Experimental: An amount of 20 mg of zipasidone hydrogensulfate dihydrate was exposed to a watersorption analysis (Surface Measurement Systems Ltd., London, UK; two complete 11-step circles from 0 % RH to 95 % RH at the temperature 25°C and nitrogen flow rate 200 ml/min; minimal retention time at the step when dm/dt < 0.002% was 10 minutes and maximal 360 minutes) and compared to the same test of Ziprasidone hydrochloride monohydrate.

[2] = Solubility in water (pH 6.8) + 2 % SDS; assay type: physicochemical; conditions: water + 2 % SDS, aqueous with cosolvent or surfactant or cyclodextrin; water (pH 6.8) + 2 % SDS at room temperature

Compound	release of crystal water at 0 % RH [1]	RH at which water sorption started [1] [% RH]	solubility [2] [µg/mL]	stability to hydratation ([1]; compared with Ziprasidone hydrochloride salt)
O=C1Cc2cc(CCN3CCN(c4nsc5ccccc45)CC3)c(Cl)cc2N1 [Ziprasidone hydrochloride monohydrate, reference compound]	release crystal water	30	–	–
O.O.O=C1Cc2cc(CCN3CCN(c4nsc5ccccc45)CC3)c(Cl)cc2N1.O=S(=O)(O)O [Ziprasidone hydrogensulfate dihydrate, 5-[2-[4-(1,2-benzisothiazol-3-yl) -1-piperazinyl]ethyl] -6-chloro-1,3-dihydro-2H-indol-2-one hydrogensulfate dihydrate]	does not release crystal water	50	360	more stable to hydratation
